Measured values: PubChem BioAssay (NCI)
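Growth conditions: 96-well plates. Treatment: test compound, 48 hours, 5 concentrations. Analysis: linear interpolation between bracketing concentrations; unreached endpoints set to highest concentration. The concentration for 50% growth inhibition is given as GI50. TGI: concentration producing complete growth inhibition.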

Tests used:
Assay in all cases: NCI-60 cell line screen, 48 h
SK-OV-3 ovarian = test system: SK-OV-3 ovarian
SW-620 colon = test system: SW-620 colon
HCC-2998 colon = test system: HCC-2998 colon
OVCAR-5 ovarian = test system: OVCAR-5 ovarian
T-47D breast = test system: T-47D breast
SNB-19 CNS = test system: SNB-19 CNS
SK-MEL-5 melanoma = test system: SK-MEL-5 melanoma
CAKI-1 renal = test system: CAKI-1 renal
TK-10 renal = test system: TK-10 renal
KM12 colon = test system: KM12 colon
HCT-116 colon = test system: HCT-116 colon
RPMI-8226 leukemia = test system: RPMI-8226 leukemia
SK-MEL-2 melanoma = test system: SK-MEL-2 melanoma
ACHN renal = test system: ACHN renal
UO-31 renal = test system: UO-31 renal
HS 578T breast = test system: HS 578T breast
NCI-H226 lung = test system: NCI-H226 lung
DU-145 prostate = test system: DU-145 prostate
SK-MEL-28 melanoma = test system: SK-MEL-28 melanoma
SF-539 CNS = test system: SF-539 CNS
HT29 colon = test system: HT29 colon
HOP-62 NSCLC = test system: HOP-62 NSCLC
A549 NSCLC = test system: A549 NSCLC
LOX IMVI melanoma = test system: LOX IMVI melanoma
UACC-62 melanoma = test system: UACC-62 melanoma
NCI-H23 lung = test system: NCI-H23 lung
MDA-MB-231 breast = test system: MDA-MB-231 breast
NCI-H522 lung = test system: NCI-H522 lung
SF-295 CNS = test system: SF-295 CNS
OVCAR-3 ovarian = test system: OVCAR-3 ovarian
SN12C renal = test system: SN12C renal
UACC-257 melanoma = test system: UACC-257 melanoma
786-0 renal = test system: 786-0 renal
K-562 leukemia = test system: K-562 leukemia
OVCAR-4 ovarian = test system: OVCAR-4 ovarian
M14 melanoma = test system: M14 melanoma
EKVX NSCLC = test system: EKVX NSCLC
SR leukemia = test system: SR leukemia
MOLT-4 leukemia = test system: MOLT-4 leukemia
HOP-92 NSCLC = test system: HOP-92 NSCLC
BT-549 breast = test system: BT-549 breast
IGROV1 ovarian = test system: IGROV1 ovarian
A498 renal = test system: A498 renal
HCT-15 colon = test system: HCT-15 colon
MCF7 breast = test system: MCF7 breast
NCI-H460 lung = test system: NCI-H460 lung
U251 CNS = test system: U251 CNS
MDA-MB-435 = test system: MDA-MB-435
RXF 393 renal = test system: RXF 393 renal
SNB-75 CNS = test system: SNB-75 CNS
COLO 205 colon = test system: COLO 205 colon
PC-3 prostate = test system: PC-3 prostate
OVCAR-8 ovarian = test system: OVCAR-8 ovarian
SF-268 CNS = test system: SF-268 CNS
NCI/ADR-RES ovarian = test system: NCI/ADR-RES ovarian
HL-60(TB) leukemia = test system: HL-60(TB) leukemia
CCRF-CEM leukemia = test system: CCRF-CEM leukemia

Compound `COc1ccc(/C=N/Nc2nc(N)nc(N3CCCC3)c2C#N)cc1` has a GI50 (SK-OV-3 ovarian) of 27.1 µM, a TGI (SK-OV-3 ovarian) of 73.3 µM and a GI50 (SW-620 colon) of 30.4 µM. It also gave a TGI (SW-620 colon) greater than 100 µM, a GI50 (HCC-2998 colon) of 8.59 µM and a TGI (HCC-2998 colon) of 26.1 µM. For the same compound, the GI50 (OVCAR-5 ovarian) was 24.3 µM, the TGI (OVCAR-5 ovarian) was 47 µM and the GI50 (T-47D breast) was 31.2 µM. For the same compound, the TGI (T-47D breast) was 89.4 µM, the GI50 (SNB-19 CNS) was 25.7 µM and the TGI (SNB-19 CNS) was 72.5 µM. For the same compound, the GI50 (SK-MEL-5 melanoma) was 19.3 µM, the TGI (SK-MEL-5 melanoma) was 39 µM and the GI50 (CAKI-1 renal) was 20.9 µM. The TGI (CAKI-1 renal) was 40.3 µM, the GI50 (TK-10 renal) was 19.4 µM and the TGI (TK-10 renal) was 39.9 µM. The GI50 (KM12 colon) was 24.8 µM, the TGI (KM12 colon) was 70.8 µM and the GI50 (HCT-116 colon) was 5.89 µM. For the same compound, the TGI (HCT-116 colon) was 22.5 µM, the GI50 (RPMI-8226 leukemia) was 14.1 µM and the TGI (RPMI-8226 leukemia) was 39 µM. For the same compound, the GI50 (SK-MEL-2 melanoma) was 21.4 µM, the TGI (SK-MEL-2 melanoma) was 46.1 µM and the GI50 (ACHN renal) was 17.4 µM. The TGI (ACHN renal) was 34.5 µM, the GI50 (UO-31 renal) was 20.6 µM and the TGI (UO-31 renal) was 38.1 µM. It also gave a GI50 (HS 578T breast) of 13 µM, a TGI (HS 578T breast) of 34 µM and a GI50 (NCI-H226 lung) of 12.4 µM. The TGI (NCI-H226 lung) was 30.6 µM, the GI50 (DU-145 prostate) was 11.8 µM and the TGI (DU-145 prostate) was 32 µM. The GI50 (SK-MEL-28 melanoma) was 30.3 µM, the TGI (SK-MEL-28 melanoma) was 78.2 µM and the GI50 (SF-539 CNS) was 6.5 µM. It also gave a TGI (SF-539 CNS) of 21.8 µM, a GI50 (HT29 colon) of 34.7 µM and a TGI (HT29 colon) greater than 100 µM. For the same compound, the GI50 (HOP-62 NSCLC) was 20.2 µM, the TGI (HOP-62 NSCLC) was 40.9 µM and the GI50 (A549 NSCLC) was 13.4 µM. For the same compound, the TGI (A549 NSCLC) was 50.8 µM, the GI50 (LOX IMVI melanoma) was 7.39 µM and the TGI (LOX IMVI melanoma) was greater than 100 µM. The GI50 (UACC-62 melanoma) was 18.9 µM, the TGI (UACC-62 melanoma) was 38.4 µM and the GI50 (NCI-H23 lung) was 20.5 µM. For the same compound, the TGI (NCI-H23 lung) was 48.1 µM, the GI50 (MDA-MB-231 breast) was 12.2 µM and the TGI (MDA-MB-231 breast) was 32.9 µM. The GI50 (NCI-H522 lung) was 21.9 µM, the TGI (NCI-H522 lung) was 47.7 µM and the GI50 (SF-295 CNS) was 16.8 µM. It also gave a TGI (SF-295 CNS) of 36 µM, a GI50 (OVCAR-3 ovarian) of 21.5 µM and a TGI (OVCAR-3 ovarian) of 40.2 µM. The GI50 (SN12C renal) was 18.6 µM, the TGI (SN12C renal) was 35.8 µM and the GI50 (UACC-257 melanoma) was 21.6 µM. For the same compound, the TGI (UACC-257 melanoma) was 44.7 µM, the GI50 (786-0 renal) was 16.2 µM and the TGI (786-0 renal) was 31.2 µM. It also gave a GI50 (K-562 leukemia) of 13 µM, a TGI (K-562 leukemia) of 28.7 µM and a GI50 (OVCAR-4 ovarian) of 23.3 µM. The TGI (OVCAR-4 ovarian) was 47.4 µM, the GI50 (M14 melanoma) was 17 µM and the TGI (M14 melanoma) was 36.5 µM. For the same compound, the GI50 (EKVX NSCLC) was 25.9 µM, the TGI (EKVX NSCLC) was 60.3 µM and the GI50 (SR leukemia) was 7.72 µM. For the same compound, the TGI (SR leukemia) was 27.5 µM, the GI50 (MOLT-4 leukemia) was 17.8 µM and the TGI (MOLT-4 leukemia) was 58.9 µM. For the same compound, the GI50 (HOP-92 NSCLC) was 17.8 µM, the TGI (HOP-92 NSCLC) was 36.4 µM and the GI50 (BT-549 breast) was 19.1 µM. It also gave a TGI (BT-549 breast) of 46.3 µM, a GI50 (IGROV1 ovarian) of 21 µM and a TGI (IGROV1 ovarian) of 44.4 µM. For the same compound, the GI50 (A498 renal) was 12.9 µM, the TGI (A498 renal) was 28.1 µM and the GI50 (HCT-15 colon) was 17.2 µM. For the same compound, the TGI (HCT-15 colon) was 47.2 µM, the GI50 (MCF7 breast) was 15.3 µM and the TGI (MCF7 breast) was 47.8 µM. The GI50 (NCI-H460 lung) was 16.4 µM, the TGI (NCI-H460 lung) was 46.7 µM and the GI50 (U251 CNS) was 17.6 µM. The TGI (U251 CNS) was 45.2 µM, the GI50 (MDA-MB-435) was 24.1 µM and the TGI (MDA-MB-435) was 64.6 µM. It also gave a GI50 (RXF 393 renal) of 10.2 µM, a TGI (RXF 393 renal) of 31.1 µM and a GI50 (SNB-75 CNS) of 23.6 µM. For the same compound, the TGI (SNB-75 CNS) was 51.8 µM, the GI50 (COLO 205 colon) was 37.1 µM and the TGI (COLO 205 colon) was greater than 100 µM. It also gave a GI50 (PC-3 prostate) of 14.7 µM, a TGI (PC-3 prostate) of 32.2 µM and a GI50 (OVCAR-8 ovarian) of 7.82 µM. The TGI (OVCAR-8 ovarian) was 47.2 µM, the GI50 (SF-268 CNS) was 17.7 µM and the TGI (SF-268 CNS) was 42 µM. The GI50 (NCI/ADR-RES ovarian) was 14.1 µM, the TGI (NCI/ADR-RES ovarian) was 40.2 µM and the GI50 (HL-60(TB) leukemia) was 28.2 µM. The TGI (HL-60(TB) leukemia) was 86.6 µM, the GI50 (CCRF-CEM leukemia) was 17.2 µM and the TGI (CCRF-CEM leukemia) was 49.2 µM.
